Read-outs that look alike come from different tables or passages of the source.
Assays:
[1] = test system: P388.D1 (Mouse lymphoid macrophage); assay: MTT assay, IC50 in tumor cell lines; assay type: cell-based; settings: P388D1, P388.D1, 72 hr
Procedure: (§1) The effect of Astarabine® on different cell lines was evaluated. Briefly, various cell lines were obtained from ATCC or ECACC. Hematological cells were grown in RPMI medium containing 10-20% FBS and 1% glutamine. Solid tumor cells were grown in DMEM medium containing 10-20% FBS and 1% glutamine. Cells were seeded into 96-well plates, 50,000 cells/ml, 0.2 ml per well. Test substances were diluted in saline or PBS and added in final concentrations of 0.1 nM to 10 μM, in a volume of 20 μl. The study was conducted in triplicates, PBS was used as control. Plates were incubated for 72 hr at 37° C., 5% CO2. At the end of the exposure period, a MTT assay using the MTT reagent [3-(4,5-dimethylthiazol-2-yl)-2,5-diphenyltetrazolium bromide] was performed. MTT was added to each well at a concentration of 5 mg/ml in a volume of 0.02 ml. Plates were incubated at 37° C. for 3 h. The plates were centrifuged at 3500 rpm for 5 minutes and the supernatant was aspired. The pellets which contained MTT crystals were each dissolved in 0.2 ml DMSO. Absorbance was determined using ELISA reader at a wavelength of 570 nm.

[2] = test system: SU DHL-1 (Human large cell lymphoma); assay: MTT assay, IC50 in tumor cell lines; assay type: cell-based; settings: SU DHL-1, 72 hr
Procedure: as §1

[3] = test system: CCRF-SB (Human acute lymphoblastic leukemia); assay: MTT assay, IC50 in tumor cell lines; assay type: cell-based; settings: 72 hr
Procedure: as §1

[4] = test system: L1210 (Mouse DBA/2 lymphocytic leukemia); assay: MTT assay, IC50 in tumor cell lines; assay type: cell-based; settings: L1210, 72 hr
Procedure: as §1

[5] = test system: RS 4:11 (Human acute lymphoblastic leukemia); assay: MTT assay, IC50 in tumor cell lines; assay type: cell-based; settings: RS4-11, RS 4:11, 72 hr
Procedure: as §1

[6] = test system: THP-1 (Human monocytic leukemia); assay: MTT assay, IC50 in tumor cell lines; assay type: cell-based; settings: THP-1, 72 hr
Procedure: as §1

[7] = test system: NCIH727 (Human lung non small cell carcinoma); assay: MTT assay, IC50 in tumor cell lines; assay type: cell-based; settings: NCI-H727, NCIH727, 72 hr
Procedure: as §1

[8] = test system: A2780 (Human ovarian carcinoma); assay: MTT assay, IC50 in tumor cell lines; assay type: cell-based; settings: A2780, 72 hr
Procedure: as §1

[9] = test system: SU DHL-5 (Human B-cell non Hodgkin's lymphoma); assay: MTT assay, IC50 in tumor cell lines; assay type: cell-based; settings: SU DHL-5, 72 hr
Procedure: as §1

[10] = test system: Molt-4 (Human acute lymphoblastic leukemia); assay: MTT assay, IC50 in tumor cell lines; assay type: cell-based; settings: Molt-4, 72 hr
Procedure: as §1

[11] = test system: HepG2 (Human hepatocellular carcinoma); assay: MTT assay, IC50 in tumor cell lines; assay type: cell-based; settings: HepG2, 72 hr
Procedure: as §1

[12] = test system: HL-60 (Human promyelocytic leukemia); assay: MTT assay, IC50 in tumor cell lines; assay type: cell-based; settings: HL-60, 72 hr
Procedure: as §1

[13] = test system: K562 (Human chronic myelogenous leukemia); assay: MTT assay, IC50 in tumor cell lines; assay type: cell-based; settings: K562, 72 hr
Procedure: as §1

[14] = test system: CCRF-CEM (Human acute lymphoblastic leukemia T lympoblastoid line); assay: MTT assay, IC50 in tumor cell lines; assay type: cell-based; settings: 72 hr
Procedure: as §1

[15] = test system: MEG 01 (Human chronic myelogenous leukemia); assay: MTT assay, IC50 in tumor cell lines; assay type: cell-based; settings: MEG 01, 72 hr
Procedure: as §1

[16] = test system: L1210 (Mouse DBA/2 lymphocytic leukemia); settings: Breistol et al., Cancer Res. 1999, read-out: Cytarabine in literature (IC50); cited from earlier work
[17] = test system: HepG2 (Human hepatocellular carcinoma); settings: Grove et al., Cancer Res. 1995, read-out: Cytarabine in literature (IC50); cited from earlier work
[18] = test system: CCRF-CEM (Human acute lymphoblastic leukemia T lympoblastoid line); settings: Manfredini et al., Bioorg. Med. Chem. 2000, read-out: Cytarabine in literature (IC50); cited from earlier work
RPMI8226 (Human myeloma) = assay: MTT assay, IC50 in tumor cell lines; assay type: cell-based; settings: RPMI-8226, RPMI8226, 72 hr
Procedure: as §1, with “Test substances were diluted in saline or PBS and added in final concentrations of 0.1 nM to 10 μM, in a volume of 20 μl.” left out

CCRF-CEM cells = assay: Human leukemia hollow fiber model transplanted in nude mice (CCRF-CEM); assay type: in vivo; settings: 1.5 mg/mouse/day, 7 consecutive days
Procedure: (§2) Next, the efficacy of Astarabine® in vivo was studied on a human leukemia (Molt-4 and CCRF-CEM cells) hollow fiber model transplanted in nude mice. Astarabine® was injected at doses of 6.25 mg/mouse/day and 25 mg/mouse/day intraperitoneally (IP), daily, for 7 consecutive days; cytarabine was injected at a dose of 1.5 mg/mouse/day. Leukemia cell growth was measured using the MTT assay as described in Example 1 herein above.

[19] = test system: HL-60 (Human promyelocytic leukemia); settings: Qin et al., Clin. Cancer Res. 2007, read-out: Cytarabine in literature (IC50); cited from earlier work
[20] = test system: CCRF-SB (Human acute lymphoblastic leukemia); settings: Manfredini et al., Bioorg. Med. Chem. 2000, read-out: Cytarabine in literature (IC50); cited from earlier work
Molt-4 cells = assay: Human leukemia hollow fiber model transplanted in nude mice (Molt-4); assay type: in vivo; settings: 1.5 mg/mouse/day, 7 consecutive days
Procedure: as §2

[21] = test system: A2780 (Human ovarian carcinoma); settings: Ruiz Van Haperen, Cancer Res. 1994, read-out: Cytarabine in literature (IC50); cited from earlier work
[22] = test system: Molt-4 (Human acute lymphoblastic leukemia); settings: Ogbomo et al., Neoplasia 2008, read-out: Cytarabine in literature (IC50); cited from earlier work

IC50 [1]: 600 to 900 nM | IC50 [2]: 124 to 524 nM | IC50 [3]: 1900 to 3100 nM | IC50 [4]: 12.2 to 16.4 nM | IC50 [5]: 26.4 nM | IC50 [6]: 2.3 to 5.5 µM | IC50 [7]: 590 to 770 nM | IC50 [8]: 72 to 114 nM | IC50 [9]: 323 nM | IC50 [10]: 1.1 to 12.3 nM | IC50 [11]: 980 to 1160 nM | IC50 [12]: 49.6 to 165 nM | IC50 [13]: 46.1 to 381 nM | IC50 [14]: 3.1 to 25.2 nM | IC50 [15]: 1.2 to 5.6 µM | IC50 (RPMI8226 (Human myeloma)): 9.7 to 63 µM
Compound: Nc1ccn([C@@H]2O[C@H](CO)[C@@H](O)[C@@H]2O)c(=O)n1 [cytarabine, cytosine arabinoside]
IC50 [16]: 40 ± 9 nM | IC50 [17]: 185 ± 240 nM | IC50 [18]: 30 nM | Inhibition of growth of CCRF-CEM cells (CCRF-CEM cells): 73.3% | IC50 [19]: 37 ± 6.1 nM | IC50 [20]: 4.2 µM | Inhibition of growth of Molt-4 cells (Molt-4 cells): 81.1% | IC50 [21]: 14 ± 4 nM | IC50 [22]: 29 ± 1.8 nM

Reference: patent publication US12064445B2, “Cytarabine conjugates for cancer therapy” (Biosight Ltd., priority 2015, dated 2024)
